Measurements: PMC5078989, “Targeted inhibition of the COP9 signalosome for treatment of cancer” (Nature Communications, 2016)

Test system: panel of cancer cell lines
Assay: Cell viability (CellTiter-Glo) dose-response across cancer cell line panel;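 note: after 72 h compound incubation with CellTiter-Glo ATP readout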
Type: cell-based, human
Settings: Homo sapiens
Text: Next, we explored the effect of CSN5 inhibition on the viability of cancer cells. To obtain a comprehensive picture, we generated dose–response curves with a CSN5 inhibitor across more than 500 cancer cell lines in a previously described standardized setting[47] (Supplementary Data 1).
A standardized CellTiter-Glo Assay (Promega #G7570) based on the quantification of ATP was applied according to the manufacturer's protocol to measure the amount of viable cells in culture. In brief, cells were seeded into 384-well plates at optimal density for each cell line. After 4 h, compounds were added at different concentrations in growth medium and incubated for another 72 h in a humidifying chamber at 37 °C and 5% CO2. […] EC50 values were calculated from the plot of percentage of inhibition versus inhibitor concentration using the nonlinear regression analysis software Origin 7.5SR6 (OriginLab Corp.).

`COCc1ccccc1NCc1ccc([C@H]2[C@@H](O)CCCc3cncn32)c(-c2ccccc2Cl)c1` [CSN5i-2, (5S,6S)-5-(2′-chloro-5-(((2-(methoxymethyl)phenyl)amino)methyl)-[1,1′-biphenyl]-2-yl)-6,7,8,9-tetrahydro-5H-imidazo[1,5-a]azepin-6-ol] gave an EC50 (HEC-50B) of 200 nM, an EC50 (HEC-108) of 3130 nM and an EC50 (HEC-151) of 1280 nM. For the same compound, the EC50 (HEC-251, HEC-251) was 513 nM, the EC50 (HEC-265) was 807 nM and the EC50 (HEL) was 404 nM. The EC50 (HEL 92.1.7, HEL 92.1.7) was 491 nM, the EC50 (HEY A8, Hey-A8) was 1990 nM and the EC50 (HL-60, HL-60) was 871 nM. The EC50 (HLC-1) was 3330 nM, the EC50 (HLE) was 1360 nM and the EC50 (HLF) was 697 nM. For the same compound, the EC50 (HMC-1-8) was 1110 nM, the EC50 (HPAC) was 1990 nM and the EC50 (HPBALL, HPB-ALL) was 1020 nM. For the same compound, the EC50 (HRT-18, HRT-18) was 1030 nM, the EC50 (HSC-2, HSC-2) was 892 nM and the EC50 (HSC-3, HSC-3) was 637 nM. The EC50 (HSC-4, HSC-4) was 1050 nM, the EC50 (HT-29, HT-29) was 2390 nM and the EC50 (HT-1080, HT-1080) was 407 nM. For the same compound, the EC50 (Hep3B) was 1090 nM, the EC50 (Hep 3B2.1-7) was 1800 nM and the EC50 (Hs 294T) was 1950 nM. It also gave an EC50 (Hs 695T) of 700 nM, an EC50 (Hs766T, Hs 766T) of 10800 nM and an EC50 (Hs 852.T) of 2200 nM. It also gave an EC50 (Hs 936.T) of 1540 nM, an EC50 (Hs 944.T) of 778 nM and an EC50 (HuG1-N) of 14000 nM. For the same compound, the EC50 (HuP-T3, HUP-T3) was 349 nM, the EC50 (Huh-7, HuH-7) was 309 nM and the EC50 (IGR-37, IGR-37) was 4040 nM. It also gave an EC50 (IGR-39, IGR-39) of 1720 nM, an EC50 (IGROV-1, IGROV1) of 7240 nM and an EC50 (IPC-298, IPC-298) of 1230 nM. For the same compound, the EC50 (IST-MES2) was 609 nM, the EC50 (Ishikawa) was 1550 nM and the EC50 (J82, J82) was 4930 nM. The EC50 (JHH7, JHH-7) was 2440 nM, the EC50 (JHH-4, JHH-4) was 388 nM and the EC50 (JHOS-2) was greater than 30000 nM. It also gave an EC50 (JHUEM-2) of 912 nM, an EC50 (JHUEM-3) greater than 30000 nM and an EC50 (JIMT-1, JIMT-1) of 22600 nM. The EC50 (JL-1) was 718 nM, the EC50 (JU77) was 857 nM and the EC50 (JVM-2, JVM-2) was 553 nM. For the same compound, the EC50 (K029AX) was 3060 nM, the EC50 (KARPAS-422, KARPAS-422) was 1750 nM and the EC50 (KATO III) was 9810 nM. The EC50 (KBM-7, KBM-7) was 229 nM, the EC50 (KCI-MOH1) was 797 nM and the EC50 (KE-97, KE-97) was 547 nM. It also gave an EC50 (KLE) of 1260 nM, an EC50 (KM12, KM12) of 3470 nM and an EC50 (KMM-1, KMM-1) of 685 nM. It also gave an EC50 (KMRC-1, KMRC-1) of 1890 nM, an EC50 (KMRC-20) of 788 nM and an EC50 (KMS-11, KMS-11) of 215 nM. It also gave an EC50 (KNS-60) of 6140 nM, an EC50 (KNS-62, KNS-62) of 8050 nM and an EC50 (KO52) of 861 nM. For the same compound, the EC50 (KP-1N) was 1110 nM, the EC50 (KP-1NL) was greater than 30000 nM and the EC50 (KP-2) was 942 nM. For the same compound, the EC50 (KP-3) was 1890 nM, the EC50 (KP-4, KP4) was 1210 nM and the EC50 (KS-1) was 9040 nM. It also gave an EC50 (KU-19-19, KU-19-19) of 1970 nM, an EC50 (KURAMOCHI) of 392 nM and an EC50 (KYSE-30, KYSE-30) of 1700 nM. It also gave an EC50 (KYSE-70, KYSE-70) of 6040 nM, an EC50 (KYSE-150, KYSE-150) of 13400 nM and an EC50 (KYSE-180, KYSE-180) of 2150 nM. For the same compound, the EC50 (KYSE-410, KYSE-410) was 11000 nM, the EC50 (Kasumi-3, Kasumi3) was 390 nM and the EC50 (Kasumi-6) was 4460 nM. The EC50 (L3.3) was 1390 nM, the EC50 (L-363, L-363) was 251 nM and the EC50 (L-428, L-428) was 590 nM. It also gave an EC50 (LC-1/sq-SF) of 24000 nM, an EC50 (LC-1F) of 6990 nM and an EC50 (LC-2-ad, LC2/ad) of 3570 nM. It also gave an EC50 (LCLC-103H) of 21500 nM, an EC50 (LIM1899) of 884 nM and an EC50 (LIM2099) of 391 nM. The EC50 (LIM2405) was 2380 nM, the EC50 (LIM2550) was 1040 nM and the EC50 (LMSU) was 247 nM. The EC50 (LN-18, LN-18) was 708 nM, the EC50 (LN-229, LN-229) was 2600 nM and the EC50 (LO68) was 3370 nM. The EC50 (LOU-NH91, LOU-NH91) was 1350 nM, the EC50 (LOX IMVI) was 952 nM and the EC50 (LP-1, LP-1) was 1090 nM. For the same compound, the EC50 (LS180, LS 180) was 448 nM, the EC50 (LUDLU-1, LUDLU-1) was 3410 nM and the EC50 (Li-7, Li-7) was 766 nM. It also gave an EC50 (Lu-65, LU65) of 558 nM, an EC50 (Lu-99, LU99) of 250 nM and an EC50 (M-07e) of 7180 nM. For the same compound, the EC50 (MCAS) was 692 nM, the EC50 (MCC13) was 846 nM and the EC50 (MCC14/2) was 282 nM. It also gave an EC50 (MCC26) of 1440 nM, an EC50 (MDA-MB-134-VI) of 694 nM and an EC50 (MDA-MB-157, MDA-MB-157) of 2490 nM. It also gave an EC50 (MDA-MB-175-VII) of 3510 nM, an EC50 (MDA-MB-231, MDA-MB-231) of 1580 nM and an EC50 (MDA-MB-435S) of 4470 nM. The EC50 (MDA-MB-436, MDA-MB-436) was 387 nM, the EC50 (MDA-MB-453, MDA-MB-453) was 7120 nM and the EC50 (MDA-MB-468, MDA-MB-468) was 5940 nM. For the same compound, the EC50 (MDST8, MDST8) was 1390 nM, the EC50 (ME-180, ME180) was 630 nM and the EC50 (MEC1, MEC-1) was 517 nM. For the same compound, the EC50 (MEL-HO) was 10500 nM, the EC50 (MEL-JUSO) was 11200 nM and the EC50 (MES-SA) was 889 nM. For the same compound, the EC50 (MFE-280, MFE-280) was 5450 nM, the EC50 (MFE-296, MFE-296) was 518 nM and the EC50 (MFE-319) was 11100 nM. The EC50 (MFM-223, MFM223) was 769 nM, the EC50 (MG-63, MG-63) was 478 nM and the EC50 (MIA PaCa-2, MIA PaCa-2) was 1810 nM. It also gave an EC50 (MINO) of 204 nM, an EC50 (MKN-1, MKN1) of 2030 nM and an EC50 (MKN-45, MKN-45) of 1710 nM. It also gave an EC50 (ML-2, ML-2) of 687 nM, an EC50 (MM127) of 508 nM and an EC50 (MM138) of 1520 nM. It also gave an EC50 (MM170) of 11400 nM, an EC50 (MM370) of 6220 nM and an EC50 (MM383) of 1190 nM. It also gave an EC50 (MM386) of 2070 nM, an EC50 (MM415) of 1370 nM and an EC50 (MM426) of 3040 nM. It also gave an EC50 (MM466) of 2250 nM, an EC50 (MM473, MM473) of 2220 nM and an EC50 (MM485) of 521 nM. The EC50 (MM537) was 2630 nM, the EC50 (MM576) was 7150 nM and the EC50 (MM603) was 286 nM.
